ChEMBL document CHEMBL1275342 (J Med Chem, 2010)

Key:
[1] = biological target: T1, Serine/threonine-protein kinase Nek2 (Homo sapiens, UniProt P51955)
T1 sequence (P51955 whole entry): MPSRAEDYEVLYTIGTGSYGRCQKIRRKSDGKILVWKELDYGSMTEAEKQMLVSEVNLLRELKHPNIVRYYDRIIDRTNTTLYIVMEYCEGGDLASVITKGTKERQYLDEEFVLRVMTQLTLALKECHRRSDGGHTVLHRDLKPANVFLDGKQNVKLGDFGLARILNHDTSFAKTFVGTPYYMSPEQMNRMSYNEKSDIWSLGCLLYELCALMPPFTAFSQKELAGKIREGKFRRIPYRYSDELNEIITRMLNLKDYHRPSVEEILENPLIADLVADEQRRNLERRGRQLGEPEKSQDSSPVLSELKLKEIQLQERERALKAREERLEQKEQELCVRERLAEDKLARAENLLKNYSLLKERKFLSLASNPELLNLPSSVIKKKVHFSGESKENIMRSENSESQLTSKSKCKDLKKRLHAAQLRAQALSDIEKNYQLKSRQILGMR
Description: Inhibition of NEK2 by microfluidic assay

[2] = biological target: T2, Serine/threonine-protein kinase Chk1 (Homo sapiens, UniProt O14757); test: Inhibition of CHK1
T2 sequence (O14757 whole entry): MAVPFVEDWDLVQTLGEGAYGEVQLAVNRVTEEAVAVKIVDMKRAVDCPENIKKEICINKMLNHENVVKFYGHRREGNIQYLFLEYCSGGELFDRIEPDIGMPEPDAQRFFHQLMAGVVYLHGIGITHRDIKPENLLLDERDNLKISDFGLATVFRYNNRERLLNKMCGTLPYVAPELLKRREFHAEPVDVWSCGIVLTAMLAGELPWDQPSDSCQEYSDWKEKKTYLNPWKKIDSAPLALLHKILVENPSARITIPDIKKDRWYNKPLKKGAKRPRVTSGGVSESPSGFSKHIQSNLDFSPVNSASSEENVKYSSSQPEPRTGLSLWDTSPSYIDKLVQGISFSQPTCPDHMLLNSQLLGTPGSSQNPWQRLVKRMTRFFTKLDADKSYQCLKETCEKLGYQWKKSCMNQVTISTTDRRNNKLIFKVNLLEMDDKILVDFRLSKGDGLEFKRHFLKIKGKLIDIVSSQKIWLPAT

[3] = biological target: Serine/threonine-protein kinase PLK1 (Homo sapiens, UniProt P53350); test: Inhibition of PLK1 after 75 mins at room temperature by caliper method
[4] = biological target: T3, Serine/threonine-protein kinase Nek1 (Homo sapiens, UniProt Q96PY6); test: Inhibition of NEK1 after 1 hr at room temperature by caliper method
T3 sequence (Q96PY6 whole entry): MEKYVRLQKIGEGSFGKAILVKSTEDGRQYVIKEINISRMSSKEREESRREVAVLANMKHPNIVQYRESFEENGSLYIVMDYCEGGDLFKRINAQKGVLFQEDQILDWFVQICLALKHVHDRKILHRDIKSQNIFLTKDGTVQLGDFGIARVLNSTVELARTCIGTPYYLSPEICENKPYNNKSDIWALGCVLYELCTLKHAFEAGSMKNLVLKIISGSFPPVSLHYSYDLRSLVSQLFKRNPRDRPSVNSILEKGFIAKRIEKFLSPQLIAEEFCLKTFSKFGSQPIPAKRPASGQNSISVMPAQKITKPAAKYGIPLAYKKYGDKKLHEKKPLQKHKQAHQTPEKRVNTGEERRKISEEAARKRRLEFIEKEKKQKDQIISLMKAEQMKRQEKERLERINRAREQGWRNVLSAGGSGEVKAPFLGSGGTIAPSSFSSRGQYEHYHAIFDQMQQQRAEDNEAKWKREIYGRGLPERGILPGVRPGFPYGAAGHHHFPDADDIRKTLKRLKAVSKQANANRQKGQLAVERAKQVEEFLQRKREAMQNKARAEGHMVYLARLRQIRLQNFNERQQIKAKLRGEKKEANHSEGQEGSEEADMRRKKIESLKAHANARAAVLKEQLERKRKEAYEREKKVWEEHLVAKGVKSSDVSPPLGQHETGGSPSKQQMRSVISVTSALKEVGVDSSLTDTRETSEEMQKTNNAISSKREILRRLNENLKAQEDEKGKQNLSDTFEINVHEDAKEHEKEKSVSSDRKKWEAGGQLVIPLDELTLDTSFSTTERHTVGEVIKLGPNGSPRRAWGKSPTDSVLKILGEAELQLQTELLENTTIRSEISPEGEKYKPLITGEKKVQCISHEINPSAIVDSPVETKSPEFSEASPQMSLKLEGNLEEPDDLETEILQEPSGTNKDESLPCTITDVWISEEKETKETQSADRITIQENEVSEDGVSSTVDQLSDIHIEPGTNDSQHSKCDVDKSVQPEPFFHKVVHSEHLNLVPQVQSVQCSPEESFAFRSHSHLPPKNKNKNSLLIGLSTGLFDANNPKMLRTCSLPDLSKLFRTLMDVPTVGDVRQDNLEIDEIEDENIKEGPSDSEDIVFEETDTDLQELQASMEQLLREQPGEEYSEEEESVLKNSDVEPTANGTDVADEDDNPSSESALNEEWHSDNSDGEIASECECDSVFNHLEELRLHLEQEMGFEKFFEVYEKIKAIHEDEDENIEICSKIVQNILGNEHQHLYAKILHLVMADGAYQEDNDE

[5] = biological target: T1, Serine/threonine-protein kinase Nek2; remark: listed apart in the source
Description: Inhibition of NEK2 assessed as inhibition of substrate phosphorylation

[6] = biological target: T1, Serine/threonine-protein kinase Nek2; remark: listed apart in the source
Description: Inhibition of NEK2 autophosphorylation after 2 hrs by DELFIA assay

Serine/threonine-protein kinase PLK1, sequence (P53350 whole entry): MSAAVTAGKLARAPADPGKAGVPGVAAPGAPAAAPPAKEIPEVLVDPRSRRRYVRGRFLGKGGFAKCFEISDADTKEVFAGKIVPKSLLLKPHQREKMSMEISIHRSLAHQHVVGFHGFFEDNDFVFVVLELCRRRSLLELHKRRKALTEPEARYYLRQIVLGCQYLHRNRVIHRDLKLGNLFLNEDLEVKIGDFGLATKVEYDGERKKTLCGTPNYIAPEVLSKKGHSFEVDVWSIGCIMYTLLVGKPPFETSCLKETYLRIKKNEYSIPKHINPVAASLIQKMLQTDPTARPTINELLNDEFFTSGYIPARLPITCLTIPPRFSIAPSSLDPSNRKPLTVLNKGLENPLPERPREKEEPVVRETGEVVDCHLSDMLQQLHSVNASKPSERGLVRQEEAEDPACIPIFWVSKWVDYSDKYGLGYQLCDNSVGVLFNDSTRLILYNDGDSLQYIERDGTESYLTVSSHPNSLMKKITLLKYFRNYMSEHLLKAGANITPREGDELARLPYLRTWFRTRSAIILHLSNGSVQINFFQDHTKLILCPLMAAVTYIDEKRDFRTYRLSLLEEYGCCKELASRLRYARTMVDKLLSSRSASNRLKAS

Row | IC50 [1] | Compound | further results
1 | 1.6 µM | Nc1ncc(-c2sccc2C2CC2)nc1N1CCC(C(=O)O)CC1 | 
2 | 2.7 µM | COc1cc(-c2cnc(N)c(N3CC[C@H](C(=O)O)[C@@H](C)C3)n2)cc(OC)c1OC (racemic) | 
3 | 11.3 µM | CC[C@H]1CN(c2nc(-c3cc(OC)c(OC)c(OC)c3)cnc2N)CC[C@@H]1C(=O)O (racemic) | 
4 | 38.3 µM | COc1cc(-c2cnc(N)c(N3CC[C@@H](C(=O)O)[C@@H](C4CC4)C3)n2)cc(OC)c1OC (racemic) | 
5 | 1.9 µM | COc1ccc(-c2cnc(N)c(N3CCC(C(=O)O)CC3)n2)cc1OC | 
6 | 1.2 µM | COc1cc(-c2cnc(N)c(N3CC[C@@H](C(=O)O)C[C@H]3C)n2)cc(OC)c1OC (racemic) | 
7 | 11.2 µM | CCC[C@H]1CN(c2nc(-c3cc(OC)c(OC)c(OC)c3)cnc2N)CC[C@H]1C(=O)O (racemic) | 
8 | 2.1 µM | CCc1ccsc1-c1cnc(N)c(N2CCC(C(=O)O)CC2)n1 | IC50 [2]: > 100 µM; IC50 [5]: 1.9 µM; IC50 [3]: 8.5 µM; IC50 [4]: 22.5 µM; IC50 [6]: 0.72 µM
9 | 7.8 µM | Nc1ncc(-c2ccccc2)nc1N1CCC(C(=O)O)CC1 | 

More lines, now with the values behind:

Row | Compound | IC50 [1] | further results
10 | COc1cc(-c2cnc(N)c(-c3ccc(C(=O)O)cc3C)n2)cc(OC)c1OC | > 50 µM | 
11 | COc1cc(-c2cnc(N)c(N3CC[C@H](C(=O)O)[C@H](C)C3)n2)cc(OC)c1OC | 10.8 µM | 
12 | COC(=O)C1CCN(c2nc(-c3cc(OC)c(OC)c(OC)c3)cnc2N)CC1 | 18.3 µM | 
13 | COc1cc(-c2cnc(N)c(N3CC[C@@H](C(=O)O)C[C@H]3C(C)C)n2)cc(OC)c1OC (racemic) | 5.9 µM | 
14 | Nc1ncc(-c2cccs2)nc1N1CCC(C(=O)O)CC1 | 4.3 µM | 
15 | CCC[C@@H]1C[C@H](C(=O)O)CCN1c1nc(-c2cc(OC)c(OC)c(OC)c2)cnc1N (racemic) | 5.4 µM | 
16 | COc1cc(-c2cnc(N)c(N3CCC(C(=O)O)CC3)n2)cc(OC)c1OC |  | IC50 [2]: > 100 µM; IC50 [3]: 22.6 µM; IC50 [4]: 2.6 µM
17 | COc1cc(-c2cnc(N)c(N3CC[C@@H](C(=O)O)[C@@H](C)[C@H]3C)n2)cc(OC)c1OC |  | IC50 [2]: > 100 µM; IC50 [3]: 19.4 µM; IC50 [4]: 0.17 µM
18 | COc1cc(-c2cnc(N)c(N3CC[C@@H](C(=O)O)[C@@H](C)C3)n2)cc(OC)c1OC (racemic) | 0.72 µM | 
19 | Nc1ncc(-c2ccsc2)nc1N1CCC(C(=O)O)CC1 | 7.2 µM | 
20 | COc1cc(OC)cc(-c2cnc(N)c(N3CCC(C(=O)O)CC3)n2)c1 | 1.9 µM | 
21 | Nc1ncc(-c2sccc2C2CCCC2)nc1N1CCC(C(=O)O)CC1 | 3.4 µM | 
22 | COc1cc(-c2cnc(N)c(-c3ccc(C(=O)O)cc3)n2)cc(OC)c1OC |  | IC50 [5]: 1.6 µM; IC50 [6]: 0.71 µM
23 | COc1cc(-c2cnc(N)c(N3CCCCC3)n2)cc(OC)c1OC | > 50 µM | 
24 | Nc1nccnc1N1CCC(C(=O)O)CC1 | 48.5 µM | 
25 | COc1cc(-c2cnc(N)c(N3CCC(C(N)=O)CC3)n2)cc(OC)c1OC | 5.7 µM | 
26 | COc1cc(-c2cnc(N)c(N3CC[C@@H](C(=O)O)[C@@H](C)C3)n2)cc(OC)c1OC | 0.39 µM | 
27 | CCc1cc(-c2nc(-c3cc(OC)c(OC)c(OC)c3)cnc2N)ccc1C(=O)O | 26.2 µM | 
28 | COc1ccc(-c2cnc(N)c(N3CCC(C(=O)O)CC3)n2)cc1 | 19.8 µM | 
29 | CC[C@@H]1C[C@H](C(=O)O)CCN1c1nc(-c2cc(OC)c(OC)c(OC)c2)cnc1N (racemic) | 1.4 µM | 
